Measurements: patent US20180369195A1, “COMBINATION THERAPY FOR TREATMENT OF MELANOMA” (The Regents of the University of California, priority 2015, published 2018)

Experiments:
[1] = tested on: Wnt signaling pathway; assay: Immunofluorescence of tumor xenograft sections for Wnt signaling pathway; format: in vivo, human; conditions: 1-benzyl I3C treated tumor xenografts vs DMSO
Experimental: (§1) Approximately 1 million G361 melanoma cells in a total volume of 0.1 ml of Matrigel were injected subcutaneously into each lateral flank of NIH III athymic nude mice. The resulting tumors were allowed to grow to a mean starting volume of 146±10 mm^3. The animals were then randomized into two groups; a vehicle control group that was treated with DMSO and an I3C treated group that were injected daily with 200 mg/kg body weight of I3C. The resulting tumor volumes were measured every other day for four weeks using calipers. The tumor volumes were calculated using the standard formula: […], and changes in tumor volumes were calculated using the formula: 100+{(Tf−Ti)/Ti×100}, where Tf is the final mean tumor volume and Ti is the initial mean tumor volume. At terminal sacrifice, tumor xenografts were harvested, and a portion of each tumor was fixed in 4% para-formaldehyde for 1 hour at room temperature, followed by a phosphate-buffered saline (PBS) wash and subsequently immersed in […] overnight at 4° C. The resulting tissues were embedded in OCT and 10 μm thin sections were taken for immunofluorescence studies.

[2] = tested on: normal epidermal melanocytes; assay: CCK-8 proliferation assay, normal epidermal melanocytes; format: cell-based; conditions: 1-benzyl I3C treatment
[3] = tested on: CDK 2, 4, 6; assay: Western blot of key cell cycle regulators; format: cell-based, human; conditions: melanoma cell lines, 1-benzyl I3C, 24, 48, 72 hours
Experimental: (§2) Western Blot analyses of samples electrophoretically fractionated on 12% acrylamide gels were carried out as previously described (Wagle et al., J. Clin. Oncol. 2011. 29(22):3085-3096; Nguyen et al., Chem. Biol. Interact. 2010. 186(3):255-266). Enhanced chemiluminescence (ECL) Lightening reagents were used to visualize the primary antibody bound protein bands in nitrocellulose membranes and the results captured on ECL Autoradiography Film (GE Healthcare, Piscataway, N.J.). The western blots employed the following primary antibodies: mouse anti-MITF-M (Thermo-scientific), mouse anti-HSP 90 (BD Biosciences), mouse anti-CDK2, rabbit anti-CDK4, rabbit anti-CDK-6, mouse anti-rabbit BRAF, goat anti-LEF-1, rabbit anti-AXIN, mouse anti-BCL2, (Santa Cruz), rabbit anti-P21, mouse anti-Cyclin D1, rabbit anti-MEK-p, rabbit anti-MEK1/2, rabbit anti-GSK3β rabbit anti-LRP6, rabbit anti-LRP6-phospho (Cell signaling), mouse anti-β-catenin (Invitrogen).

[4] = tested on: MITF-M; assay: Immunofluorescence of tumor xenograft sections for MITF-M; format: in vivo, human; conditions: I3C 200 mg/kg, terminal sacrifice, relative to vehicle
Experimental: as §1, with “I3C” left out, “[…].” for “I3C.”, “100+{(Tf-Ti)/Ti×100},” for “100+{(Tf−Ti)/Ti×100},”

[5] = tested on: RPMI-7951 cells; assay: CCK-8 proliferation assay, RPMI-7951; format: cell-based, human; conditions: 200 μM I3C, 72 hours; BRAF-V600E
Experimental: Cells were treated with 20 μM 1-benzyl I3C every 24 hours for 72 hours and harvested at 24, 48 and 72 hours for western blot and flow cytometric analysis. […] Subsequently inhibition of proliferation was assessed using Cell counting Kit-8 (Dojindo) as per the protocol in the user's manual. Briefly, 50 μl of the CCK-8 solution was added to each well along with 450 μl media and incubated for 2-3 hours. The absorbance was read at 450 nm and % inhibition was calculated for each condition standardizing DMSO to zero using the formula: [(100−Value of treatment/Value of DMSO treated control)×100]

[6] = tested on: SK-MEL-2 cells; assay: Flow cytometry analysis of DNA content, SK-MEL-2; format: cell-based, human; conditions: all tested concentrations of I3C
Experimental: Melanoma cells were treated with the indicated concentrations of 1-benzyl […] in triplicates every 24 hours and harvested at the end of 24, 48 or 72 hours for cell cycle analysis. The DNA content of propidium iodide stained nuclei from harvested cells were determined by flow cytometry. Briefly, cells were hypotonically lysed in […] of DNA staining solution (0.5 mg/mL propidium iodide, 0.1% sodium citrate, and 0.05% Triton-X 100). Emitted fluorescence from the nuclear of wavelengths more than 585 nm was measured with a Coulter Elite instrument with laser output adjusted to deliver 15 mW at 488 nm. Ten thousand nuclei were analyzed from each sample at a rate of 300-500 nuclei/second. The percentage of cells within the G1, S, and G2/M phases of the cell cycle were determined by analysis with the Multicycle computer program provided by Phoenix Flow Systems in the Cancer Research Laboratory Microchemical Facility of the University of California, Berkeley.

[7] = tested on: phosphorylated MEK; assay: Western blot of phosphorylated MEK; format: cell-based, human; conditions: 200 μM I3C, 72 hour time course
Experimental: Western Blot analyses of samples electrophoretically fractionated on 12% acrylamide gels were carried out as previously described (Wagle et al., J. Clin. Oncol. 2011. 29(22):3085-3096; Nguyen et al., Chem. Biol. Interact. 2010. 186(3):255-266). […] The western blots employed the following primary antibodies: mouse anti-MITF-M (Thermo-scientific), mouse anti-HSP 90 (BD Biosciences), mouse anti-CDK2, rabbit anti-CDK4, rabbit anti-CDK-6, mouse anti-rabbit BRAF, goat anti-LEF-1, rabbit anti-AXIN, mouse anti-BCL2, (Santa Cruz), rabbit anti-P21, mouse anti-Cyclin D1, rabbit anti-MEK-p, rabbit anti-MEK1/2, rabbit anti-GSK3β rabbit anti-LRP6, rabbit anti-LRP6-phospho (Cell signaling), mouse anti-β-catenin (Invitrogen).

[8] = tested on: CDK4; assay: Western blot of CDK4; format: cell-based, human; conditions: G-361 cells, 48 hours; 200 μM I3C, 10 μM Vemurafenib or 10 μM U0126
Experimental: as §2

[9] = biological target: T1, BRAF-V600E (Homo sapiens, UniProt P15056, V600E); assay: BRAF kinase assay on BRAF immunoprecipitated from pretreated G-361 cells; format: biochemical; conditions: G-361 cells treated 48 hours; 200 μM or 400 μM I3C, 10 μM Vemurafenib
T1 construct: BRAF-V600E was immunoprecipitated from untreated G-361 cells and incubated in vitro; endogenous in cells; host or cells: G-361 human melanoma cells (ATCC)
Experimental: (§3) BRAF was pulled down from the cell lysates using anti-BRAF antibodies bound to protein G-coupled Sepharose beads, while IgG was used as a negative control. Post-immunoprecipitation supernatants were probed with anti BRAF antibody by western blots to determine pull-down efficiency. […] The reactions were terminated by adding 4× sodium dodecyl sulfate (SDS) sample buffer and boiling the mixture at 100° C. for 5 min. The samples were then electrophoresed, immunoblotted and probed for relative protein levels of phosphorylated MEK and total MEK to assess the kinase activity of the immunoprecipitated BRAF.

[10] = biological target: T1, BRAF-V600E; assay: In vitro BRAF kinase assay, in-vitro treated BRAF-V600E from G-361 cells; format: biochemical; conditions: pre-incubated 2 hours; 200 μM or 400 μM I3C
Experimental: as §3

T1 sequence (P15056 whole entry V600E): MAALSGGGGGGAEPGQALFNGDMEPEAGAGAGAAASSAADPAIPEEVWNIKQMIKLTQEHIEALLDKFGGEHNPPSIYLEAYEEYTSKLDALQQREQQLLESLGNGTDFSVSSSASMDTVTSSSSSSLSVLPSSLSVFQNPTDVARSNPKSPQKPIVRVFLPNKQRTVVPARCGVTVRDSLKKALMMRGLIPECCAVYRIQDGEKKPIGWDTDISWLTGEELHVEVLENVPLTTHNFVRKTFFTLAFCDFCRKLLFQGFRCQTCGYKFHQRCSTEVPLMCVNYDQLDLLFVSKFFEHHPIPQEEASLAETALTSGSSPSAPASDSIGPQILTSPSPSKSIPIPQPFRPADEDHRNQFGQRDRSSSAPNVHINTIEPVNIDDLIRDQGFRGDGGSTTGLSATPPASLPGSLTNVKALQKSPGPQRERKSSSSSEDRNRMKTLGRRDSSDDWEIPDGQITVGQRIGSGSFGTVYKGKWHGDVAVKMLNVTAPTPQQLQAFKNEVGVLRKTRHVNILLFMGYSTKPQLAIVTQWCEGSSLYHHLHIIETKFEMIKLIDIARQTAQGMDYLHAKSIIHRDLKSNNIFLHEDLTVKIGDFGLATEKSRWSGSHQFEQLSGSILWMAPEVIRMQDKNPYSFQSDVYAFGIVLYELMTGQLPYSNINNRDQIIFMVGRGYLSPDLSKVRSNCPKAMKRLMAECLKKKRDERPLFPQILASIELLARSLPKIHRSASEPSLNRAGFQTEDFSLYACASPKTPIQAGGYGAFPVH

Compound | effect on Wnt signaling pathway in tumor xenograft sections [1] | antiproliferative response [2] | levels of key cell cycle regulators [3] | MITF-M protein in tumor xenograft sections [4] | sensitivity to anti-proliferative effects [5] | G1 cell cycle arrest [6] | phosphorylated MEK levels ([7]; G-361 and DM738 cells) | phosphorylated MEK levels ([7]; SK-MEL-2 cells) | CDK4 protein levels [8] | BRAF-V600E enzymatic activity (phosphorylated MEK) after cellular treatment [9] | BRAF-V600E activity (phosphorylated MEK), direct in vitro incubation [10]
OCc1cn(Cc2ccccc2)c2ccccc12 [1-benzyl I3C, 1-benzyl indole-3-carbinol] | mimicked the cell culture data | No such antiproliferative response | downregulation of key cell cycle regulators like CDK 2, 4, 6 |  |  |  |  |  |  |  | 
OCc1c[nH]c2ccccc12 [I3C, indole-3-carbinol] |  |  |  | strong down-regulation of MITF-M protein | Most sensitive | remained in a rapidly proliferating state | strongly down regulated | no effect | down regulated | significantly inhibited BRAF-V600E enzymatic activity | strongly down regulated BRAF-V600E activity
